What was measured:
conscious rats = experiment: Acute infusion of L-NAME during chronic infusion of purified porcine RLX; assay type: in vivo, rat
Protocol: At least 7 days after the implantation of vascular and bladder catheters, osmotic minipumps containing either porcine RLX (4 μg/hour) or vehicle (Ringer's solution) were implanted in intact, female rats (n=7 and 6 rats, respectively). Renal function and MAP were measured on day 5 of relaxin infusion (three 30-minute urine and midpoint blood collections). Next, an infusion of L-NAME (2 μg/minute, a substrate competitive inhibitor of NO synthase) was administered intravenously (i.v.) by infusion pump (Model 200, KD Scientific, Boston, Mass.). Four 1-hour urine collections with midpoint blood samples were collected for the assessment of GFR, ERPF, and ERVR during the L-NAME administration. Identical procedures were performed on additional animals chronically administered porcine RLX (n=5) or vehicle (n=5), except that ANG II (3 ng/minute) was infused rather than L-NAME. Finally, another four, age-matched control rats were administered Ringer's solution instead of either L-NAME or ANG II on day 5 of porcine RLX infusion.
MAP, GFR, ERPF, and ERVR were measured at time zero (baseline), and at 60, 120, 180, and 240 minutes after administering L-NAME and either RLX or vehicle alone. Values represent the mean±SEM. L-NAME (Nω-nitro-L-arginine methyl ester) was infused at 2 μg/minute intravenously, and relaxin was administered at 4 μg/hour by osmotic minipump subcutaneously. There were 7 and 6 rats, respectively, in the RLX and vehicle groups. An asterisk denotes p<0.05; the symbol H denotes p<0.05 for RLX vs. vehicle.

[1] = tested on: Rat aortic adventitial fibroblasts; experiment: Collagen and fibronectin expression by adventitial fibroblasts; assay type: cell-based
Protocol: Aortic adventitial fibroblasts from normal adult Sprague/Dawley rats were explanted by carefully dissecting the adventitia away from the media and culturing 1 mm^3 pieces in Dulbecco's modified Eagles Medium (DMEM), plus 10% bovine fetal calf serum. When cultures were confluent, fibroblasts were dispersed with trypsin and passaged once prior to use in experiments. Fibroblasts were seeded at 10^5 cells/cm^2 in DMEM+10% FBS in 48-well plates for experiments and assayed for collagen and fibronectin expression, as previously described (Unemori et al. (1996) J. Clin. Invest. 98:2739-2745). […] Half of the cultures were also treated simultaneously with 10 ng/ml of rhRlx. Proteins were biosynthetically labeled with ^3H-proline (25 μCi/ml) (Amersham Corp., Arlington Heights, Ill.), in the presence of ascorbate (50 μg/ml) and β-aminopropionitrile (80 μg/ml), and conditioned media collected 24 hours later. Media were electrophoresed on SDS-PAGE, and the density of collagen and fibronectin bands was determined by densitometric scanning using a digital imaging system (Alpha Innotech Corp, San Leandro, Calif.).

db/db mice = experiment: Full thickness wound healing in db/db mice; assay type: in vivo, mouse; conditions: PDGF 5 μg/wound/day for 5 days
Protocol: To determine whether rhRlx would improve healing in this model of impaired healing, standardized full thickness (1.5 cm×1.5 cm) wounds were made on the back of db/db mice (Jackson Laboratories, Bar Harbor, Me.). Mice were treated continuously for 21 days with rhRlx via a subcutaneously implanted Alzet pump at a dose of either 0.1 mg/kg/day or 0.2 mg/kg/day. Wound areas were measured in the course of the study. Healing is presented as wound area on day 14 relative to the original size of the wound on day 0 and is calculated as: % of original wound area=[Area on day 14/area on day 0]×100. […] Wound closure was expressed as “% of original wound area.” There were 8-20 animals per group. Wound closure was 91.4% in control group vs. 64% in the relaxin-treated group (p<0.05 by Student-Newman-Kuels test). The differences in the extent of wound healing were small among vehicle control and low dose of rhRlx treatment as well as PDGF (5 μg/wound/day for 5 days) treated mice.
At day 21-post surgery, the wounds were also excised and fixed in formalin prior to paraffin embedding. Sections from the middle of the wound were stained with Masson's trichrome and evaluated by two investigators. […] Inflammatory cell accumulation was present at the wound edges.
Neovascularization is a key component of granulation tissue formation. New blood vessel formation is stimulated by a variety of growth factors including bFGF, and VEGF. […] Immunohistochemical staining of the midsection of full thickness wounds using polyclonal antibody to von Willebrand factor VIII-related antigen was used to identify new blood vessels in the wounds.

Which results are given for `COC(=O)[C@@H](N)CCCNC(=N)N[N+](=O)[O-]` [L-NAME, Nω-nitro-L-arginine methyl ester, reference compound]?
renal vasodilation and hyperfiltration in the relaxin-treated rats (conscious rats; day 5 of porcine RLX infusion, L-NAME 2 μg/minute i.v.): completely abrogated; rise in MAP and ERVR, and reduction in GFR and ERPF (conscious rats; relaxin-treated compared to vehicle infused rats): significantly greater

How did the “expression of collagens, of control levels” value ([1]; TGF-β (20 ng/ml)) turn out when TGF-β [reference compound] was run?
The value was 484±67%.

What about the “Fibronectin expression, of control levels” value ([1]; TGF-β treatment) of the same compound?
Its value is 360±5%.

How did the “differences in the extent of wound healing vs vehicle control” value (db/db mice) turn out when PDGF [reference compound] was run?
Its value is “small”.
